Test results: patent publication US8980926B2, “2-aminoindole compounds and methods for the treatment of malaria” (Genzyme Corporation, priority 2009, dated 2015)

Test system: P. falciparum strain 3D7
Assay: In vitro potency against P. falciparum strain 3D7 (SYBR green/DAPI)
Type: cell-based
Settings: Plasmodium falciparum, reductions in parasitemia, read-out: IC50 values

Row | Compound | IC50
1 | CCOc1cc(C2(O)C(N)=Nc3ccc(Cl)cc32)c(Cl)cn1 (centres unmarked) [Compound 243] | 0.001 to 0.1 µM
2 | CCOc1ccc(Cl)cc1C1(O)C(N)=Nc2ccc(C)cc21 (centres unmarked) [Compound 244] | 0.001 to 0.1 µM
3 | Cc1ccc2c(c1)C(O)(c1cc(Cl)ccc1OC(C)C)C(N)=N2 (centres unmarked) [Compound 245] | 0.001 to 0.1 µM
4 | CC(C)[C@]1(O)C(N)=Nc2ccc(Cl)cc21 [Compound 246] | 0.1 to 0.5 µM
5 | CC(C)[C@@]1(O)C(N)=Nc2ccc(Cl)cc21 [Compound 247] | 0.1 to 0.5 µM
6 | CC(C)(C)Oc1ccccc1C1(O)C(N)=Nc2ccc(Cl)cc21 (centres unmarked) [Compound 248] | 0.001 to 0.1 µM
7 | CCOc1ccc(F)cc1C1(O)C(N)=Nc2ccc(C)cc21 (centres unmarked) [Compound 249] | 0.001 to 0.1 µM
8 | CCOc1cc(F)c(F)cc1C1(O)C(N)=Nc2ccc(Cl)cc21 (centres unmarked) [Compound 250] | 0.001 to 0.1 µM
9 | CCOc1cc(F)ccc1C1(O)C(N)=Nc2ccc(C)cc21 (centres unmarked) [Compound 251] | 0.001 to 0.1 µM
10 | Cn1cc2cc(Cl)cc(C3(O)C(N)=Nc4ccc(Cl)cc43)c2n1 (centres unmarked) [Compound 252] | 0.001 to 0.1 µM
11 | COc1ccc2c(c1)C(O)(c1cc(Cl)ccc1C1CC1)C(N)=N2 (centres unmarked) [Compound 253] | 0.001 to 0.1 µM
12 | COc1cnc(OC)c(C2(O)C(N)=Nc3ccc(C)cc32)c1 (centres unmarked) [Compound 254] | 0.001 to 0.1 µM
13 | CCOc1cc(F)c(F)cc1C1(O)C(N)=Nc2ccc(C)cc21 (centres unmarked) [Compound 255] | 0.001 to 0.1 µM
14 | Cc1ccc2c(c1)C(O)(c1ccccc1C1CC1)C(N)=N2 (centres unmarked) [Compound 256] | 0.001 to 0.1 µM
15 | Cc1ccc2c(c1)C(O)(c1cccc3ccccc13)C(N)=N2 (centres unmarked) [Compound 257] | 0.001 to 0.1 µM
16 | Cn1ncc2cc(Cl)cc(C3(O)C(N)=Nc4ccc(Cl)cc43)c21 (centres unmarked) [Compound 258] | 0.001 to 0.1 µM
17 | CCOc1cc(Cl)ccc1C1(O)C(N)=Nc2ccc(Cl)cc21 (centres unmarked) [Compound 259] | 0.001 to 0.1 µM
18 | CCOc1ccc(C2(O)C(N)=Nc3ccc(Cl)cc32)c(Cl)c1 (centres unmarked) [Compound 260] | 0.1 to 0.5 µM
19 | Cc1ccc2c(c1)C(O)(c1cc(Cl)ccc1OC(C)(C)C)C(N)=N2 (centres unmarked) [Compound 261] | 0.001 to 0.1 µM
20 | Cc1ccc2c(c1)C(O)(c1cc(Cl)ccc1C1CC1)C(N)=N2 (centres unmarked) [Compound 262] | 0.001 to 0.1 µM
21 | COc1cc(C2(O)C(N)=Nc3ccc(Cl)cc32)c2ccccc2n1 (centres unmarked) [Compound 263] | 0.001 to 0.1 µM
22 | NC1=Nc2ccccc2C1(O)c1cc(F)cc2ccccc12 (centres unmarked) [Compound 264] | 0.1 to 0.5 µM
23 | CCOc1cc(F)c(Cl)cc1C1(O)C(N)=Nc2ccc(C)cc21 (centres unmarked) [Compound 265] | 0.001 to 0.1 µM
24 | Cc1ccc2c(c1)C(O)(c1cc(F)cc3ccccc13)C(N)=N2 (centres unmarked) [Compound 268] | 0.001 to 0.1 µM
25 | COc1ccc2c(c1)C(O)(c1cc(F)cc3ccccc13)C(N)=N2 (centres unmarked) [Compound 269] | 0.001 to 0.1 µM
26 | Cc1ccc2c(c1)C(O)(c1cc(Cl)cnc1N(C)C)C(N)=N2 (centres unmarked) [Compound 270] | 0.001 to 0.1 µM
27 | COc1cc(C2(O)C(N)=Nc3ccc(Cl)cc32)c2c(cnn2C)c1 (centres unmarked) [Compound 271] | 0.1 to 0.5 µM
28 | Cn1ccc2cc(F)cc(C3(O)C(N)=Nc4ccc(Cl)cc43)c21 (centres unmarked) [Compound 272] | 0.1 to 0.5 µM
29 | Cc1ccc2c(c1)C(O)(c1cc(Cl)cc3ccccc13)C(N)=N2 (centres unmarked) [Compound 273] | 0.001 to 0.1 µM
